Measurements reported in publication PMC11881559 (Antimicrobial Agents and Chemotherapy, 2025).

Experiment: Single ascending dose (SAD) study, plasma PK
Assay type: in vivo, human
Settings: for AUC0-t / AUC0-∞ / Cmax / MRT0-∞ / λz: mean (%CV); for t1/2: mean ± SD; for Tmax: median (range)
Method: For the MAD and food-effect studies, the doses were chosen according to the PK and safety results of the SAD study. […] The tablets were administered from the lowest dosage. The next highest dose level was initiated based on PK characteristics and a 5-day safety observation of the previous dose by the investigators and sponsors. […] This study included two groups: one group under feeding conditions (a high-fat diet comprising 110 g of boiled eggs, 240 mL of milk, 20 g of bacon, 20 g of butter, 50 g of toast, 10 g of salad oil, and 115 g of chips consumed within 30 min before dosing) and one group under fasting conditions. […] Interventions for all cohorts, except the 200 mg cohort, were conducted at the First Hospital of Jilin University (Changchun, China). The randomization lists were created using the PLAN statistical procedure in SAS 9.4 software (SAS Institute, Cary, NC, USA). Throughout the study, unblinding was only used in the event of SAEs or other emergency situations; otherwise, blinding was maintained for investigators, participants, and sponsors until the study’s completion.
For the SAD, food-effect, and DDI studies, blood samples were collected before dose administration and at 15 min, 30 min, and 1, 1.5, 2, 3, 4, 6, 8, 12, 24, 36, 48, 72, and 96 h after dose administration. We used collection tubes containing the anticoagulant EDTA for PK assessments. In the MAD study, blood samples were obtained on day 1 at 0 h, 15 min, 30 min, and 1, 1.5, 2, 3, 4, 6, 8, and 12 h after dosing; on days 2–4; and on day 5 at 0 h, 15 min, 30 min, and 1, 1.5, 2, 3, 4, 6, 8, 12, 24, 36, 48, 72, and 96 h after dosing. The […] samples were subsequently centrifuged at 1,300 × g for 10 min at 2–8°C. For the food-effect component, urine samples were collected in tubes containing 0.01% Triton X-100 at the following intervals: 0, 0–6, 6–12, 12–24, 24–48, 48–72, 72–96, 96–120, 120–144, 144–168, and 168–192 h after administration. Fecal samples were collected from 0 h to 192 h after the first dose. All the samples were stored at −80°C.
The standard curve concentrations ranged from 5 to 5,000 ng/mL, 10 to 10,000 ng/mL, and 5 to 5,000 µg/g in the plasma, urine, and fecal samples, respectively. The lower limits of quantification were 5.00 ng/mL, 10.00 ng/mL, and 5.00 µg/g for the plasma, urine, and fecal samples, respectively.
The noncompartmental model (Phoenix WinNonlin ver. 8.2.2.227, Certara, Princeton, USA) was used to calculate the PK parameters: time to maximum observed plasma concentration (Tmax); maximum observed plasma concentration (Cmax); area under the concentration-time curve from the time of dosing to the last time point with measurable plasma concentrations of drug (AUC0-t); AUC from the time of dosing extrapolated to infinity (AUC0-∞); terminal elimination half-life of the drug in plasma (t1/2); clearance (CL/F); volume (Vz/F); terminal phase elimination rate constant (λz); and mean retention time (MRT). The power model was used to evaluate the relationship between PK parameters and the dose level, expressed as ln (PK parameter) = ln (α) + β * ln (dose), where ln (α) is the intercept of the transformed linear regression equation and β is the slope. Upon calculating the 90% CI of β, if the entire 90% CI of β falls within the judgment interval, the PK parameters can be deemed linearly related to the dosage.

Question: With `O=C(NC1CCCC1)C(=O)[C@H](C[C@@H]1CCNC1=O)NC(=O)[C@@H]1[C@H]2CCC[C@H]2CN1C(=O)[C@@H](NC(=O)C(F)(F)F)C1CCCCC1` [RAY1216, leritrelvir] as the molecule, how does the AUC0-t (200 mg single dose) read?
Answer: 5,510 (22.7) ng·h/mL

Question: And the “AUC0-∞” value (200 mg single dose)?
Answer: 5,550 (22.7) ng·h/mL

Question: What about the Cmax (200 mg single dose) of the same molecule?
Answer: 1,270 (42) ng/mL

Question: And the “MRT0-∞” value (200 mg single dose)?
Answer: 5.01 (13.5) h

Question: What about the λz (200 mg single dose) of the same molecule?
Answer: 0.214 (6.2) h^−1

Question: And the t1/2 (200 mg single dose)?
Answer: 3.25 ± 0.202 h

Question: And the Tmax (200 mg single dose)?
Answer: 1.5 (0.5, 2.0) h

Question: What about the AUC0-t (400 mg single dose) of the same molecule?
Answer: 11,700 (45.8) ng·h/mL

Question: And the “AUC0-∞” value (400 mg single dose)?
Answer: 11,700 (45.6) ng·h/mL

Question: And the Cmax (400 mg single dose)?
Answer: 2,250 (53.8) ng/mL

Question: What about the “MRT0-∞” value (400 mg single dose) of the same molecule?
Answer: 6.05 (9.9) h

Question: What about the λz (400 mg single dose) of the same molecule?
Answer: 0.172 (36) h^−1

Question: And the t1/2 (400 mg single dose)?
Answer: 4.83 ± 2.86 h

Question: What about the Tmax (400 mg single dose) of the same molecule?
Answer: 1.3 (1.0, 4.0) h

Question: And the AUC0-t (800 mg single dose)?
Answer: 16,200 (18.7) ng·h/mL

Question: And the “AUC0-∞” value (800 mg single dose)?
Answer: 16,300 (18.8) ng·h/mL

Question: And the Cmax (800 mg single dose)?
Answer: 3,590 (20.2) ng/mL

Question: And the “MRT0-∞” value (800 mg single dose)?
Answer: 6.75 (38.2) h

Question: And the λz (800 mg single dose)?
Answer: 0.128 (73.6) h^−1

Question: What about the t1/2 (800 mg single dose) of the same molecule?
Answer: 10.3 ± 9.72 h

Question: What about the Tmax (800 mg single dose) of the same molecule?
Answer: 1.5 (1.0, 3.0) h

Question: And the AUC0-t (1,600 mg single dose)?
Answer: 29,100 (24.1) ng·h/mL

Question: What about the “AUC0-∞” value (1,600 mg single dose) of the same molecule?
Answer: 29,100 (24.1) ng·h/mL

Question: What about the Cmax (1,600 mg single dose) of the same molecule?
Answer: 6,180 (20.1) ng/mL

Question: What about the “MRT0-∞” value (1,600 mg single dose) of the same molecule?
Answer: 5.94 (13.4) h

Question: What about the λz (1,600 mg single dose) of the same molecule?
Answer: 0.139 (22.4) h^−1

Question: What about the t1/2 (1,600 mg single dose) of the same molecule?
Answer: 5.22 ± 1.16 h

Question: What about the Tmax (1,600 mg single dose) of the same molecule?
Answer: 1.5 (1.0, 4.0) h
